Experimental data reported in patent US12479827B2, “Heteroaromatic carboxamide derivatives as plasma kallikrein inhibitors” (Boehringer Ingelheim International GmbH, priority 2020, dated 2025).

Key:
[1] = molecular target: T1, Human PKK (Homo sapiens, UniProt P03952); assay: Inhibition of PKK using an endpoint assay (human PKK); type: biochemical; settings: fluorogenic substrate H-Pro-Phe-Arg-AMC, 1 h room temperature, method names human or rat PKK, table does not say which
T1 construct: purchased Enzyme Research Laboratories
T1 sequence (P03952 20-390 limits assumed): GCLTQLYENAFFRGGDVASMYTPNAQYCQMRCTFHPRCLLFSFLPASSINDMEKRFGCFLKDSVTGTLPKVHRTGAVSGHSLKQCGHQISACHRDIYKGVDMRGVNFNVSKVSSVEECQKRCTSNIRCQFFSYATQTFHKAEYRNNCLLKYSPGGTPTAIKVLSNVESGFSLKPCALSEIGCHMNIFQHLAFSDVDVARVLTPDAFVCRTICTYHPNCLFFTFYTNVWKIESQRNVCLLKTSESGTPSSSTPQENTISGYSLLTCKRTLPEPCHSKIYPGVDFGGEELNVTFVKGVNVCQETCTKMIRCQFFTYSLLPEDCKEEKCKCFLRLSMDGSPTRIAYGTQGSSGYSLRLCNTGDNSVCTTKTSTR
T1 sequence (P03952 391-638 limits assumed): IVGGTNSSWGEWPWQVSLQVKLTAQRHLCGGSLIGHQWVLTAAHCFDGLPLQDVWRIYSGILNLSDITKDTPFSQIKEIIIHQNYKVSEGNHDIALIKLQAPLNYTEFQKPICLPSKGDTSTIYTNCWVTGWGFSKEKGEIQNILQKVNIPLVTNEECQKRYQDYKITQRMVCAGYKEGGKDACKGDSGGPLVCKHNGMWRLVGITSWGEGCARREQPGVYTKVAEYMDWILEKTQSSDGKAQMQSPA
Method in brief: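 Human PKK inhibition measured in 100 mM Tris, 150 mM NaCl, pH 7.8, 0.1% BSA, 0.05% Tween20, 1% DMSO. Endpoint format: reaction stopped with PPACK II at 1 μM final, fluorescence read at 355 nm excitation/460 nm emission.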

[2] = molecular target: T2, PKK in kaolin activated human platelet poor plasma (Homo sapiens, UniProt P03952); assay: Inhibition of PKK in kaolin activated human PPP; type: biochemical; settings: 25-750 μg/mL kaolin, global fit, text b200 calls the values IC90;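 further: readout is the rate of fluorogenic substrate cleavage in rfu per min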
T2 construct: Platelet poor plasma (PPP) obtained from human wholeblood; from tissue
T2 sequence (P03952 391-638 limits assumed): as above
T2 sequence (P03952 20-390 limits assumed): as the sequence (P03952 20-390 limits assumed) above
Experimental: Platelet poor plasma (PPP) obtained from human wholeblood, anticoagulated with Na-Citrate, is incubated with various concentrations of the test compound together with either 25, 75, 250, or 750 μg/mL kaolin in assay buffer for 20 min at 37° C. such that for each kaolin dose used a concentration response is obtained for the test compound.

In the case of `Cc1nc(N2CC3(CC3)C2)ccc1Cn1cc(C(=O)N[C@@H]2CCc3c2ncn3C)nn1` [Example 68, 1-[(6-{5-Azaspiro[2.3]hexan-5-yl}-2-methylpyridin-3-yl)-methyl]-N-[(4R)-1-methyl-1H,4H,5H,6H-cyclo-penta[d]imidazol-4-yl]-1H-1,2,3-triazole-4-carboxamide], the IC50 [1] is reported as 0.0014 µM and the IC50 [2] is reported as 0.637 µM.
Compound `CCCc1nc(N2CC3C(C2)C3(F)F)ccc1Cn1cc(C(=O)N[C@@H]2CCc3c2ncn3C)cn1` (stereo partly drawn) [Example 69, 1-[(6-{6,6-Difluoro-3-azabicyclo[3.1.0]hexan-3-yl}-2-propylpyridin-3-yl)methyl]-N-[(4R)-1-methyl-1H,4H,5H,6H-cyclopenta[d]imidazol-4-yl]-1H-pyrazole-4-carboxamide] has an IC50 [1] of 0.0009 µM and an IC50 [2] of 0.328 µM.
In the case of `Cc1nc(N2CC3CC3C2)ccc1Cn1cc(C(=O)N[C@@H]2CCc3c2ncn3C)c(C#N)n1` (stereo partly drawn) [Example 70, 1-[(6-{3-Azabicyclo[3.1.0]hexan-3-yl}-2-methylpyridin-3-yl)methyl]-3-cyano-N-[(4R)-1-methyl-1H,4H,5H,6H-cyclopenta[d]imidazol-4-yl]-1H-pyrazole-4-carboxamide], the IC50 [1] is reported as 0.0008 µM and the IC50 [2] is reported as 0.797 µM.
`Cn1cnc2c1CC[C@H]2NC(=O)c1cnn(Cc2ncc(N3CC4CC4C3)cn2)c1` (stereo partly drawn) [Example 71, 1-[(5-{3-Azabicyclo[3.1.0]hexan-3-yl}pyrimidin-2-yl)methyl]-N-[(4R)-1-methyl-1H,4H,5H,6H-cyclopenta[d]imidazol-4-yl]-1H-pyrazole-4-carboxamide] was tested, and the IC50 [1] was 0.151 µM and the IC50 [2] was 9.31 µM.
`Cn1cnc2c1CC[C@H]2NC(=O)c1cn(Cc2ccc(N3CC4CC4C3)nc2)cn1` (stereo partly drawn) [Example 72, 1-[(6-{3-Azabicyclo[3.1.0]hexan-3-yl}pyridin-3-yl)methyl]-N-[(4R)-1-methyl-1H,4H,5H,6H-cyclopenta[d]imidazol-4-yl]-1H-imidazole-4-carboxamide] gave an IC50 [1] of 0.0033 µM and an IC50 [2] of 0.831 µM.
In the case of `Cn1cnc2c1CC[C@H]2NC(=O)c1cnn(Cc2ccc(N3CC4(CC4)C3)nc2)c1` [Example 73, 1-[(6-{5-Azaspiro[2.3]hexan-5-yl}pyridin-3-yl)-methyl]-N-[(4R)-1-methyl-1H,4H,5H,6H-cyclopenta[d]imidazol-4-yl]-1H-pyrazole-4-carboxamide], the IC50 [1] is reported as 0.0096 µM and the IC50 [2] is reported as 0.498 µM.
With `Cn1cnc2c1CC[C@H]2NC(=O)c1cn(Cc2ccc(N3CC4(CC4)C3)nc2)cn1` [Example 74, 1-[(6-{5-Azaspiro[2.3]hexan-5-yl}pyridin-3-yl)-methyl]-N-[(4R)-1-methyl-1H,4H,5H,6H-cyclopenta[d]imidazol-4-yl]-1H-imidazole-4-carboxamide] the IC50 [1] was 0.0069 µM and the IC50 [2] was 0.321 µM.
With `CCc1nc(N2CC3C(C2)C3(F)F)ccc1Cn1cnc(C(=O)N[C@@H]2CCc3c2ncn3C)c1` (stereo partly drawn) [Example 76, 1-[(6-{6,6-Difluoro-3-azabicyclo[3.1.0]hexan-3-yl}-2-ethylpyridin-3-yl)methyl]-N-[(4R)-1-methyl-1H,4H,5H,6H-cyclopenta[d]imidazol-4-yl]-1H-imidazole-4-carboxamide] the IC50 [1] was 0.0006 µM and the IC50 [2] was 0.27 µM.
Work on `COCc1nc(N2CC3(CC3)C2)ccc1Cn1cnc(C(=O)N[C@@H]2CCc3c2ncn3C)c1` [Example 77, 1-[(6-{5-Azaspiro[2.3]hexan-5-yl}-2-(methoxymethyl)-pyridin-3-yl)methyl]-N-[(4R)-1-methyl-1H,4H,5H,6H-cyclopenta[d]imidazol-4-yl]-1H-imidazole-4-carboxamide] yielded an IC50 [1] of 0.0033 µM and an IC50 [2] of 0.197 µM.
Compound `COCc1nc(N2CC3(CC3)C2)ccc1Cn1cc(C(=O)N[C@@H]2CCc3c2ncn3C)cn1` [Example 78, 1-[(6-{5-Azaspiro[2.3]hexan-5-yl}-2-(methoxymethyl)-pyridin-3-yl)methyl]-N-[(4R)-1-methyl-1H,4H,5H,6H-cyclopenta[d]imidazol-4-yl]-1H-pyrazole-4-carboxamide] has an IC50 [1] of 0.0068 µM and an IC50 [2] of 0.317 µM.
With `Cn1cnc2c1CC[C@H]2NC(=O)c1cnn(Cc2ccc(N3CC4(CC4)C3)nc2CO)c1` [Example 79, 1-[(6-{5-Azaspiro[2.3]hexan-5-yl}-2-(hydroxymethyl)-pyridin-3-yl)methyl]-N-[(4R)-1-methyl-1H,4H,5H,6H-cyclopenta[d]imidazol-4-yl]-1H-pyrazole-4-carboxamide] the IC50 [1] was 0.0055 µM and the IC50 [2] was 0.249 µM.
With `Cn1cnc2c1CC[C@H]2NC(=O)c1cnn(Cc2ccc(N3CC4CC4C3)nc2CC#N)c1` (stereo partly drawn) [Example 81, 1-[(6-{3-Azabicyclo[3.1.0]hexan-3-yl}-2-(cyanomethyl)-pyridin-3-yl)methyl]-N-[(4R)-1-methyl-1H,4H,5H,6H-cyclopenta[d]imidazol-4-yl]-1H-pyrazole-4-carboxamide] the IC50 [1] was 0.0013 µM and the IC50 [2] was 0.117 µM.
`C[C@@H](O)c1nc(N2CC3CC3C2)ccc1Cn1cc(C(=O)N[C@@H]2CCc3c2ncn3C)cn1` (stereo partly drawn) [Example 82, 1-[(6-{3-Azabicyclo[3.1.0]hexan-3-yl}-2-[(1R)-1-hydroxy-ethyl]pyridin-3-yl)methyl]-N-[(4R)-1-methyl-1H,4H,5H,6H-cyclopenta[d]imidazol-4-yl]-1H-pyrazole-4-carboxamide] showed an IC50 [1] of 0.0008 µM and an IC50 [2] of 0.117 µM.
`C[C@H](O)c1nc(N2CC3CC3C2)ccc1Cn1cc(C(=O)N[C@@H]2CCc3c2ncn3C)cn1` (stereo partly drawn) [Example 83, 1-[(6-{3-Azabicyclo[3.1.0]hexan-3-yl}-2-[(1S)-1-hydroxy-ethyl]pyridin-3-yl)methyl]-N-[(4R)-1-methyl-1H,4H,5H,6H-cyclopenta[d]imidazol-4-yl]-1H-pyrazole-4-carboxamide] was tested, and the IC50 [1] was 0.0017 µM and the IC50 [2] was 0.594 µM.
`Cn1cnc2c1CC[C@H]2NC(=O)c1cnn(Cc2ccc(N3CC4CC4C3)nc2C(C)(C)O)c1` (stereo partly drawn) [Example 84, 1-[(6-{3-Azabicyclo[3.1.0]hexan-3-yl}-2-(2-hydroxypropan-2-yl)pyridin-3-yl)methyl]-N-[(4R)-1-methyl-1H,4H,5H,6H-cyclopenta[d]imidazol-4-yl]-1H-pyrazole-4-carboxamide] was tested, and the IC50 [1] was 0.0007 µM and the IC50 [2] was 0.209 µM.
With `Cn1cnc2c1CC[C@H]2NC(=O)c1cnn(Cc2ccc(N3CC4CC4C3)nc2CCO)c1` (stereo partly drawn) [Example 85, 1-[(6-{3-Azabicyclo[3.1.0]hexan-3-yl}-2-(2-hydroxyethyl)-pyridin-3-yl)methyl]-N-[(4R)-1-methyl-1H,4H,5H,6H-cyclopenta[d]imidazol-4-yl]-1H-pyrazole-4-carboxamide] the IC50 [1] was 0.0008 µM and the IC50 [2] was 0.132 µM.
`Cn1cnc2c1CC[C@H]2NC(=O)c1cn(Cc2ccc(N3CC4(CC4)C3)nc2CO)cn1` [Example 87, 1-[(6-{5-Azaspiro[2.3]hexan-5-yl}-2-(hydroxymethyl)-pyridin-3-yl)methyl]-N-[(4R)-1-methyl-1H,4H,5H,6H-cyclopenta[d]imidazol-4-yl]-1H-imidazole-4-carboxamide] was tested, and the IC50 [1] was 0.0033 µM and the IC50 [2] was 0.177 µM.
`CC(O)c1nc(N2CC3CC3C2)ccc1Cn1cc(C(=O)N[C@@H]2CCc3c2ncn3C)cn1` (stereo partly drawn) [Example 88, 1-[(6-{3-Azabicyclo[3.1.0]hexan-3-yl}-2-(1-hydroxyethyl)-pyridin-3-yl)methyl]-N-[(4R)-1-methyl-1H,4H,5H,6H-cyclopenta[d]imidazol-4-yl]-1H-pyrazole-4-carboxamide] gave an IC50 [1] of 0.0009 µM and an IC50 [2] of 0.139 µM.
`Cn1cnc2c1CC[C@H]2NC(=O)c1cnn(Cc2ncc(N3CC4CC4C3)nc2CO)c1` (stereo partly drawn) [Example 89, 1-[(5-{3-Azabicyclo[3.1.0]hexan-3-yl}-3-(hydroxymethyl)-pyrazin-2-yl)methyl]-N-[(4R)-1-methyl-1H,4H,5H,6H-cyclopenta[d]imidazol-4-yl]-1H-pyrazole-4-carboxamide] showed an IC50 [1] of 0.0775 µM and an IC50 [2] of 3.43 µM.
With `Cn1cnc2c1CC[C@H]2NC(=O)c1cn(Cc2ccc(N3CC4CC4C3)nc2CO)nn1` (stereo partly drawn) [Example 91, 1-[(6-{3-Azabicyclo[3.1.0]hexan-3-yl}-2-(hydroxymethyl)-pyridin-3-yl)methyl]-N-[(4R)-1-methyl-1H,4H,5H,6H-cyclo-penta[d]imidazol-4-yl]-1H-1,2,3-triazole-4-carboxamide] the IC50 [1] was 0.0021 µM and the IC50 [2] was 0.439 µM.
Work on `COCc1nc(N2CC3CC3C2)ccc1Cn1cc(C(=O)N[C@@H]2CCc3c2ncn3C)nn1` (stereo partly drawn) [Example 92, 1-[(6-{3-Azabicyclo[3.1.0]hexan-3-yl}-2-(methoxymethyl)-pyridin-3-yl)methyl]-N-[(4R)-1-methyl-1H,4H,5H,6H-cyclo-penta[d]imidazol-4-yl]-1H-1,2,3-triazole-4-carboxamide] yielded an IC50 [1] of 0.0028 µM and an IC50 [2] of 0.307 µM.
In the case of `Cn1cnc2c1CC[C@H]2NC(=O)c1cnn(Cc2ccc(N3CC4C(C3)C4(F)F)nc2CO)c1` (stereo partly drawn) [Example 93, 1-[(6-{6,6-Difluoro-3-azabicyclo[3.1.0]hexan-3-yl}-2-(hydroxymethyl)pyridin-3-yl)methyl]-N-[(4R)-1-methyl-1H,4H,5H,6H-cyclopenta-[d]imidazol-4-yl]-1H-pyrazole-4-carboxamide], the IC50 [1] is reported as 0.0014 µM and the IC50 [2] is reported as 0.11 µM.
With `Cc1nc(N2CC3C(C2)C3(F)F)cnc1Cn1cc(C(=O)N[C@@H]2CCc3c2ncn3C)nn1` (stereo partly drawn) [Example 94, 1-[(5-{6,6-Difluoro-3-azabicyclo[3.1.0]hexan-3-yl}-3-methylpyrazin-2-yl)methyl]-N-[(4R)-1-methyl-1H,4H,5H,6H-cyclopenta[d]imidazol-4-yl]-1H-1,2,3-triazole-4-carboxamide] the IC50 [1] was 0.0108 µM and the IC50 [2] was 1.76 µM.
`COCc1nc(N2CC3C(C2)C3(F)F)ccc1Cn1cnc(C(=O)N[C@@H]2CCc3c2ncn3C)c1` (stereo partly drawn) [Example 95, 1-[(6-{6,6-Difluoro-3-azabicyclo[3.1.0]hexan-3-yl}-2-(methoxymethyl)pyridin-3-yl)methyl]-N-[(4R)-1-methyl-1H,4H,5H,6H-cyclopenta-[d]imidazol-4-yl]-1H-imidazole-4-carboxamide] was tested, and the IC50 [1] was 0.0055 µM and the IC50 [2] was 0.577 µM.
